Assay results as given in patent US4921865A, “Aminoacylates of glycerol acetal” (Societe de Conseils de Recherches et d'Applications …, priority 1987, dated 1990).

Legend:
[1] = tested on: PAF-induced [Ca^2+ ]i mobilization, washed rabbits platelets; test: inhibition of intracytosolic free calcium mobilization induced by PAF in washed rabbit platelets; assay type: cell-based; details: PAF 2×10^-9 M; for inhibition of PAF-induced [Ca^2+ ]i mobilization (in words): 5×10^-7 M; for inhibition at 0.05 µM: Oryctolagus cuniculus, Platelet, 5×10^-8 M, read-out: inhibition of PAF effect on [Ca^2+ ]i
Description: Blood was taken from the auricular artery of the rabbit on citric acid/sodium citrate/dextrose and anticoagulan and the washed platelets were prepared according to Ardlie et al., Brit. J. Pharmacology, 19, 7-17, 1970. They were incubated with acetylsalicylic salt (100 μM, 30 minutes) to avoid thromboxane induced aggregation. They were then loaded with the fluorescent calcium indicator dye quin 2 by incubation with quin 2 aceto-methylester (15 μM in DMSO, 20 minutes at room temperature) which penetrates the cell membrane and after hydrolysed is trapped in the platelet. Drugs were preincubated with platelets for 15 minutes simultaneously to CP/CPK mixture which destroys secreted ADP.
Fluorescent measurement was then performed (excitation λ=339 nm, emission λ=494 nm) after PAF addition to platelet suspension. The fluorescence intensity is proportional to the cytosolic free calcium level [Ca^2+ ]i which can be quantified as described by Tsien et al., J. Cell Biol., 94, 325-334, 1982.

[2] = tested on: PAF-induced bronchoconstriction; test: PAF-induced bronchoconstriction in the guinea pig; assay type: in vivo; details: for Percentage Variation (bronchoconstriction): vs control; for inhibition of PAF-induced bronchoconstriction (in words): pyridinium compound 0.5, 1 and 5 mg/kg IV, quinolinium compound 0.5 and 1 mg/kg IV
Description: (§1) Male Guinea-pig (400-500 g) were anesthetized with urethane (1.5 g/kg: IP) prior to be tracheotomized and ventilated with a respiratory pump (UGO BASILE) (70-80 breath/minute, 1 ml air/100 g/breath) to abolish spontaneous respiration a pneumothorax was performed. The resistance to inflation was measured with a pressure transducer (UGO BASILE) against an initial pressure of 10 cm H2 O according to Konzett and Rossler. Animals were allocated into groups and were treated or not by the compounds of the invention (0.05, 0.1, 0.5, 1 and 5 mg/kg).The products were given IV 1 hour before challenge with PAF.
(§2) The animals were challenged with various doses of PAF ([…]) given intravenously, and the variations in the resistance to inflation were recorded.

[3] = tested on: polymorphonuclear leukocytes (PMNs); test: antagonism of polymorphonuclear leukocyte aggregation induced by PAF; assay type: cell-based, rat (Wistar); details: rat PMNs, PAF 10^-8; for IC50: Leukocyte
Description: Polymorphonuclear leukocytes (PMNs) were obtained as described by A. W. Ford-Hutchinson et al. (Br - J. Pharmacol. 76, 367-371, 1982). Cell suspensions ([…]) were prepared from peritoneal exudates obtained after a 5 ml IP injection of sodium caseinate 12% (w/v) to male Wistar rats, 300 g body weight.
After centrifugation, cells were washed with Hanks and resuspended in MEM/Hepes 30 mM medium (PM=7.4) at a concentration of 10^7 cells/ml. Cytochalasin B (5 μg/ml) was added 10 minutes before trigering aggregation to amplify the PMNs aggregation. The light transmittance through the cell suspension (400 μl) was measured under a 900 R/mn magnetic stirring, with a dual beam aggregometer (Chronolog Corp. Coultronics.)
The control cuvet is the cell suspension diluted to 20% of the cell count with MEM and the difference represents 100% transmittance. Change in transmittance, which occurs when PAF is added, was continuously recorded.
Drugs solubilized in MEM/Hepes were added (4 μl) to PMNs suspension 2 minutes before PAF addition.

[4] = tested on: antigen-induced thrombocytopenia; test: antigen-induced thrombocytopenia in passively sensitized guinea-pigs; assay type: in vivo, guinea-pig (Hartley); details: 5 mg/kg IV; for Percentage Inhibition (thrombocytopenia): vs control
[5] = tested on: antigen-induced bronchoconstriction; test: antigen-induced bronchoconstriction in passively sensitized guinea-pigs; assay type: in vivo, guinea-pig (Hartley); details: 5 mg/kg IV
[6] = tested on: antigen-induced leukopenia; test: antigen-induced leukopenia in passively sensitized guinea-pigs; assay type: in vivo, guinea-pig (Hartley); details: 5 mg/kg IV; for Percentage Inhibition (leukopenia): vs control
[7] = tested on: PAF-induced thrombocytopenia; test: PAF-induced thrombocytopenia in the guinea pig; assay type: in vivo; details: for Percentage Variation (thrombocytopenia): vs control; for inhibition of PAF-induced thrombocytopenia (in words): pyridinium compound 0.5, 1 and 5 mg/kg IV, quinolinium compound 0.5 and 1 mg/kg IV; for Percentage Decrease in leukocyte number: thrombocytopenia
Description: as §1, §2
Blood samples were collected prior to and 1,5 and 10 minutes following to PAF-challenge. Forty μl of blood were diluted in 10 ml isoton (Coultronics, France); erythrocytes were lysed with Zapoglobin (France) prior leukocytes were counted in a coulter counter. To determine platelet number, 40 μl of blood were diluted in 2 ml isoton and centrifuged at 100 runs per minute for 30 secondes, 100 μl of the supernatant were collected and further diluted in 10 ml isoton prior counting in a coulter counter.

CCCCCCCCCCCCCCCCCC1(C)OCC(COC(=O)CCCCC[n+]2ccccc2)O1 (stereo not drawn) [Example 9, 2-heptadecyl 2-methyl 4-[6'-(N-pyridinium)hexanoyloxymethyl] 1,3 dioxolan bromide]
inhibition of PAF-induced [Ca^2+ ]i mobilization (in words) [1]: totally inhibit
inhibition at 0.05 µM [1]: 44%
Percentage Bronchoconstriction ([2]; 0.05 mg/kg IV): 79.0 +/- 9.27%
Percentage Variation (bronchoconstriction) ([2]; 0.05 mg/kg IV): -1.0%
Percentage Bronchoconstriction ([2]; 0.1 mg/kg IV): 43.8 +/- 14.77%
Percentage Variation (bronchoconstriction) ([2]; 0.1 mg/kg IV): -45.1%
Percentage Bronchoconstriction ([2]; 0.5 mg/kg IV): 23.6 +/- 7.15%
Percentage Variation (bronchoconstriction) ([2]; 0.5 mg/kg IV): -70.4%
Percentage Bronchoconstriction ([2]; 1 mg/kg IV): 19.1 +/- 10.51%
Percentage Variation (bronchoconstriction) ([2]; 1 mg/kg IV): -76.1%
Percentage Bronchoconstriction ([2]; 5 mg/kg IV): 3.5 +/- 1.53%
Percentage Variation (bronchoconstriction) ([2]; 5 mg/kg IV): -95.6%
inhibition of PAF-induced bronchoconstriction (in words) [2]: inhibit
IC50 [3]: 500 nM
inhibition of PMN aggregation (in words) [3]: dose-dependently inhibit
effect on antigen-induced thrombocytopenia (in words) [4]: antagonizes
Percentage Inhibition (thrombocytopenia) ([4]; 1 mn): -104.4%
Percentage Inhibition (thrombocytopenia) ([4]; 5 mn): -91.2%
Percentage Inhibition (thrombocytopenia) ([4]; 10 mn): -39.8%
Percentage Bronchoconstriction [5]: 51.3 +/- 14.2%
effect on antigen-induced bronchoconstriction (in words) [5]: without significantly reducing
Percentage Variation (bronchoconstriction) ([5]; vs control): -28.7%
effect on antigen-induced leukopenia (in words) [6]: antagonizes
Percentage Decrease in leukocytes number ([6]; 1 mn): -15.6 +/- 6.6%
Percentage Inhibition (leukopenia) ([6]; 1 mn): +32.0%
Percentage Decrease in leukocytes number ([6]; 5 mn): -8.7 +/- 10.7%
Percentage Inhibition (leukopenia) ([6]; 5 mn): -78.0%
Percentage Decrease in leukocytes number ([6]; 10 mn): -12.3 +/- 14.1%
Percentage Inhibition (leukopenia) ([6]; 10 mn): -77.2%
Percentage Variation (thrombocytopenia) ([7]; 0.05 mg/kg IV, 1 mn): -34.1%
Percentage Variation (thrombocytopenia) ([7]; 0.05 mg/kg IV, 5 mn): +1.4%
Percentage Variation (thrombocytopenia) ([7]; 0.05 mg/kg IV, 10 mn): -15.1%
Percentage Variation (thrombocytopenia) ([7]; 0.1 mg/kg IV, 1 mn): -56.1%
Percentage Variation (thrombocytopenia) ([7]; 0.1 mg/kg IV, 5 mn): -18.2%
Percentage Variation (thrombocytopenia) ([7]; 0.1 mg/kg IV, 10 mn): -0.5%
Percentage Variation (thrombocytopenia) ([7]; 0.5 mg/kg IV, 1 mn): -71.9%
Percentage Variation (thrombocytopenia) ([7]; 0.5 mg/kg IV, 5 mn): -77.4%
Percentage Variation (thrombocytopenia) ([7]; 0.5 mg/kg IV, 10 mn): -74.4%
Percentage Variation (thrombocytopenia) ([7]; 1 mg/kg IV, 1 mn): -83.2%
Percentage Variation (thrombocytopenia) ([7]; 1 mg/kg IV, 5 mn): -46.9%
Percentage Variation (thrombocytopenia) ([7]; 1 mg/kg IV, 10 mn): -50.6%
Percentage Variation (thrombocytopenia) ([7]; 5 mg/kg IV, 1 mn): -93.9%
Percentage Variation (thrombocytopenia) ([7]; 5 mg/kg IV, 5 mn): -86.8%
Percentage Variation (thrombocytopenia) ([7]; 5 mg/kg IV, 10 mn): -97.4%
inhibition of PAF-induced thrombocytopenia (in words) [7]: inhibit
Percentage Decrease in leukocyte number ([7]; 0.05 mg/kg IV, 1 mn): 45.2 +/- 1.20%
Percentage Decrease in leukocyte number ([7]; 0.05 mg/kg IV, 5 mn): 43.0 +/- 4.80%
Percentage Decrease in leukocyte number ([7]; 0.05 mg/kg IV, 10 mn): 36.1 +/- 2.41%
Percentage Decrease in leukocyte number ([7]; 0.1 mg/kg IV, 1 mn): 30.1 +/- 13.72%
Percentage Decrease in leukocyte number ([7]; 0.1 mg/kg IV, 5 mn): 34.7 +/- 3.60%
Percentage Decrease in leukocyte number ([7]; 0.1 mg/kg IV, 10 mn): 42.3 +/- 4.79%
Percentage Decrease in leukocyte number ([7]; 0.5 mg/kg IV, 1 mn): 19.3 +/- 10.19%
Percentage Decrease in leukocyte number ([7]; 0.5 mg/kg IV, 5 mn): 9.6 +/- 12.15%
Percentage Decrease in leukocyte number ([7]; 0.5 mg/kg IV, 10 mn): 10.9 +/- 9.94%
Percentage Decrease in leukocyte number ([7]; 1 mg/kg IV, 1 mn): 11.5 +/- 6.21%
Percentage Decrease in leukocyte number ([7]; 1 mg/kg IV, 5 mn): 22.5 +/- 3.27%
Percentage Decrease in leukocyte number ([7]; 1 mg/kg IV, 10 mn): 21.0 +/- 3.87%
Percentage Decrease in leukocyte number ([7]; 5 mg/kg IV, 1 mn): 4.2 +/- 2.35%
Percentage Decrease in leukocyte number ([7]; 5 mg/kg IV, 5 mn): 5.6 +/- 1.84%
Percentage Decrease in leukocyte number ([7]; 5 mg/kg IV, 10 mn): 1.1 +/- 1.15%

CCCCCCCCCCCCCCCCCC1(C)OCC(COC(=O)CCCCC[n+]2cccc3ccccc32)O1 (stereo not drawn) [Example 10, 2-heptadecyl 2-methyl 4-[6'-(N-quinolinium)hexanoyloxymethyl) 1,3-dioxolanbromide]
inhibition of PAF-induced [Ca^2+ ]i mobilization (in words) [1]: totally inhibit
inhibition at 0.05 µM [1]: 75%
Percentage Bronchoconstriction ([2]; 0.1 mg/kg IV): 80.4 +/- 13.78%
Percentage Variation (bronchoconstriction) ([2]; 0.1 mg/kg IV): -11.5%
Percentage Bronchoconstriction ([2]; 0.5 mg/kg IV): 25.1 +/- 6.53%
Percentage Variation (bronchoconstriction) ([2]; 0.5 mg/kg IV): -72.4%
Percentage Bronchoconstriction ([2]; 1 mg/kg IV): 8.1 +/- 2.91%
Percentage Variation (bronchoconstriction) ([2]; 1 mg/kg IV): -91.1%
inhibition of PAF-induced bronchoconstriction (in words) [2]: inhibit
IC50 [3]: 1000 nM
inhibition of PMN aggregation (in words) [3]: dose-dependently inhibit
Percentage Variation (thrombocytopenia) ([7]; 0.1 mg/kg IV, 1 mn): -21.7%
Percentage Variation (thrombocytopenia) ([7]; 0.1 mg/kg IV, 5 mn): 0%
Percentage Variation (thrombocytopenia) ([7]; 0.1 mg/kg IV, 10 mn): -7.2%
Percentage Variation (thrombocytopenia) ([7]; 0.5 mg/kg IV, 1 mn): -59.9%
Percentage Variation (thrombocytopenia) ([7]; 0.5 mg/kg IV, 5 mn): -39.3%
Percentage Variation (thrombocytopenia) ([7]; 0.5 mg/kg IV, 10 mn): -33.8%
Percentage Variation (thrombocytopenia) ([7]; 1 mg/kg IV, 1 mn): -58.3%
Percentage Variation (thrombocytopenia) ([7]; 1 mg/kg IV, 5 mn): -55.0%
Percentage Variation (thrombocytopenia) ([7]; 1 mg/kg IV, 10 mn): -60.0%
inhibition of PAF-induced thrombocytopenia (in words) [7]: inhibit
Percentage Decrease in leukocyte number ([7]; 0.1 mg/kg IV, 1 mn): 51.1 +/- 12.1%
Percentage Decrease in leukocyte number ([7]; 0.1 mg/kg IV, 5 mn): 49.1 +/- 8.8%
Percentage Decrease in leukocyte number ([7]; 0.1 mg/kg IV, 10 mn): 45.0 +/- 9.7%
Percentage Decrease in leukocyte number ([7]; 0.5 mg/kg IV, 1 mn): 26.2 +/- 6.3%
Percentage Decrease in leukocyte number ([7]; 0.5 mg/kg IV, 5 mn): 29.8 +/- 1.7%
Percentage Decrease in leukocyte number ([7]; 0.5 mg/kg IV, 10 mn): 32.1 +/- 5.8%
Percentage Decrease in leukocyte number ([7]; 1 mg/kg IV, 1 mn): 19.3 +/- 1.4%
Percentage Decrease in leukocyte number ([7]; 1 mg/kg IV, 5 mn): 22.1 +/- 2.5%
Percentage Decrease in leukocyte number ([7]; 1 mg/kg IV, 10 mn): 19.4 +/- 3.6%
